Here are results for 14 compounds from US20260015350A1, “AZAQUINAZOLINE PAN-KRAS INHIBITORS” (Mirati Therapeutics, Inc., priority 2022, published 2026).

One experiment addresses T1, KRas^G12R (Homo sapiens, UniProt P01116, G12R).
T1 construct: Biotinylated KRas (corresponding to amino acids 1-169, produced at Accelegan Inc.); biotin (biotinylated); purchased Accelegan Inc
The experiment is described as follows: KRas binding assay (TR-FRET tracer displacement), KRas G12R.

For experiment [1], the system named is KRas-mediated phosphorylation of ERK in H727 cells. Put plainly: Inhibition of KRas-mediated phosphorylation of ERK (Cisbio HTRF pERK), H727 cells. It is filed as cell-based. Conditions: Homo sapiens, NCI-H727, H727 cells; HTRF pERK. The gist of the method:
(§1)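 A cell-based HTRF pERK assay: ten-point, threefold titrations beginning at 10 uM were applied for 3 hrs, with 0.2 uM Trametinib wells as the minimum control. Cells were lysed cold, and lysate was incubated with the antibody pair for 2 hrs before reading.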

For experiment [2], the system named is KRas-mediated phosphorylation of ERK in AsPC-1 cells. The experiment is described as follows: Inhibition of KRas-mediated phosphorylation of ERK (Cisbio HTRF pERK), AsPC-1 cells. It is filed as cell-based. To be noted: Homo sapiens, ASPC1, AsPC-1 cells; HTRF pERK. The gist of the method: as §1
For another experiment, the target named is T2, KRas^G12V (Homo sapiens, UniProt P01116, G12V).
T2 construct: Biotinylated KRas (corresponding to amino acids 1-169, produced at Accelegan Inc.); biotin (biotinylated); purchased Accelegan Inc
T2 sequence (P01116 1-169 isoform P01116-2 G12V): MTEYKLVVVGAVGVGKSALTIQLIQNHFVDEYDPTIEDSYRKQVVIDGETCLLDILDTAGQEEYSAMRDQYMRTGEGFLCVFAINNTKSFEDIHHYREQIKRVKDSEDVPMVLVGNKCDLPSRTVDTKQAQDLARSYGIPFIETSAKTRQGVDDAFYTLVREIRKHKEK
The experiment is described as follows: KRas binding assay (TR-FRET tracer displacement), KRas G12V.

The target of the next experiment is T3, KRas^G12D (Homo sapiens, UniProt P01116, G12D).
T3 construct: Biotinylated KRas (corresponding to amino acids 1-169, produced at Accelegan Inc.); biotin (biotinylated); purchased Accelegan Inc
T3 sequence (P01116 1-169 isoform P01116-2 G12D): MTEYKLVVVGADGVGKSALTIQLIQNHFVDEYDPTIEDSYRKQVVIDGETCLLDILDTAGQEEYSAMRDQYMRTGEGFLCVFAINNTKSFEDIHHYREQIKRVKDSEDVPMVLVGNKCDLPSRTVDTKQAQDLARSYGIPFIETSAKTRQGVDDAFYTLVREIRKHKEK
The experiment is described as follows: KRas binding assay (TR-FRET tracer displacement), KRas G12D.

T1 sequence (P01116 1-169 isoform P01116-2 G12R): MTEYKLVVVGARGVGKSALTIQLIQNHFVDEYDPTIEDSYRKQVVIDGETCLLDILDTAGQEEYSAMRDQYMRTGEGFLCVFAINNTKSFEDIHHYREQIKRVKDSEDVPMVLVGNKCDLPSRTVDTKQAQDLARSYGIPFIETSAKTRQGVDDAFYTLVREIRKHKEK

For `CCc1c(F)ccc2cc(O)cc(-c3ncc4c(N5CCC6(CC5)OCCC6C#N)nc(OC[C@@]56CCCN5C[C@H](F)C6)nc4c3F)c12` (stereo partly drawn) [Example 612, 8-(7-(8-ethyl-7-fluoro-3-hydroxynaphthalen-1-yl)-8-fluoro-2-(((2R,7aS)-2-fluorohexahydro-1H-pyrrolizin-7a-yl)methoxy)pyrido[4,3-d]pyrimidin-4-yl)-1-oxa-8-azaspiro[4.5]decane-4-carbonitrile], the 50% inhibitory concentration (IC50) on KRas^G12R was 911 nM; in experiment [1], more than 10000 nM; in experiment [2], more than 10000 nM; at KRas^G12V, 474 nM; on KRas^G12D, 4250 nM.
On to `CCc1c(F)ccc2cc(O)cc(-c3ncc4c(N5CC6(CO)CC(C7CC7)(C5)C6)nc(OC[C@@]56CCCN5C[C@H](F)C6)nc4c3F)c12` [Example 613, 4-(4-(1-cyclopropyl-5-(hydroxymethyl)-3-azabicyclo[3.1.1]heptan-3-yl)-8-fluoro-2-(((2R,7aS)-2-fluorohexahydro-1H-pyrrolizin-7a-yl)methoxy)pyrido[4,3-d]pyrimidin-7-yl)-5-ethyl-6-fluoronaphthalen-2-ol], for which the IC50 was 27500 nM at KRas^G12R; more than 10000 nM in experiment [1]; more than 10000 nM in experiment [2]; 21800 nM at KRas^G12V; 54800 nM at KRas^G12D.
In the case of `CCc1c(F)ccc2cc(O)cc(-c3ncc4c(N5CC[C@@H]6C(=O)NC(=O)[C@@H]6CC5)nc(OC[C@@]56CCCN5C[C@H](F)C6)nc4c3F)c12` [Example 614, (3aR,8aS)-6-(7-(8-ethyl-7-fluoro-3-hydroxynaphthalen-1-yl)-8-fluoro-2-(((2R,7aS)-2-fluorohexahydro-1H-pyrrolizin-7a-yl)methoxy)pyrido[4,3-d]pyrimidin-4-yl)hexahydropyrrolo[3,4-d]azepine-1,3(2H,3aH)-dione], the concentration for half-maximal inhibition (IC50) on KRas^G12R was 701 nM; in experiment [1], more than 10000 nM; in experiment [2], more than 10000 nM; at KRas^G12V, 398 nM; on KRas^G12D, 805 nM.
In the case of `CCc1c(F)ccc2cc(O)cc(-c3ncc4c(N5CCCC(C6CCC(=O)N6)C5)nc(OC[C@@]56CCCN5C[C@H](F)C6)nc4c3F)c12` (stereo partly drawn) [Example 620, 5-(1-(7-(8-ethyl-7-fluoro-3-hydroxynaphthalen-1-yl)-8-fluoro-2-(((2R,7aS)-2-fluorohexahydro-1H-pyrrolizin-7a-yl)methoxy)pyrido[4,3-d]pyrimidin-4-yl)piperidin-3-yl)pyrrolidin-2-one], the IC50 is 376 nM at KRas^G12R; 6800 nM in experiment [1]; 9680 nM in experiment [2]; 248 nM at KRas^G12V; 495 nM on KRas^G12D.
The matching figures for `CCc1c(F)ccc2cc(O)cc(-c3ncc4c(N5CC6CN(C7COC7)CC6C5)nc(OC[C@@]56CCCN5C[C@H](F)C6)nc4c3F)c12` (stereo partly drawn) [Example 621, 5-ethyl-6-fluoro-4-(8-fluoro-2-(((2R,7aS)-2-fluorohexahydro-1H-pyrrolizin-7a-yl)methoxy)-4-(5-(oxetan-3-yl)hexahydropyrrolo[3,4-c]pyrrol-2(1H)-yl)pyrido[4,3-d]pyrimidin-7-yl)naphthalen-2-ol]: 3490 nM, more than 10000 nM, more than 10000 nM, 1290 nM and 891 nM.
With `CCc1c(F)ccc2cc(O)cc(-c3ncc4c(N5C[C@@H]6[C@@H](C(N)=O)NC(=O)[C@@H]6C5)nc(OC[C@@]56CCCN5C[C@H](F)C6)nc4c3F)c12` [Example 622, (3aS,6aR)-5-(7-(8-ethyl-7-fluoro-3-hydroxynaphthalen-1-yl)-8-fluoro-2-(((2R,7aS)-2-fluorotetrahydro-1H-pyrrolizin-7a(5H)-yl)methoxy)pyrido[4,3-d]pyrimidin-4-yl)-3-oxooctahydropyrrolo[3,4-c]pyrrole-1-carboxamide], the concentration for half-maximal inhibition (IC50) on KRas^G12R was 139 nM; in experiment [1] it was more than 10000 nM; in experiment [2], more than 10000 nM; at KRas^G12V, 68 nM; at KRas^G12D it was 377 nM.
On to `CCc1c(F)ccc2cc(O)cc(-c3ncc4c(N5CCC(C)(C)SC(C)(C)C5)nc(OC[C@@]56CCCN5C[C@H](F)C6)nc4c3F)c12` [Example 626, 5-ethyl-6-fluoro-4-(8-fluoro-2-(((2R,7aS)-2-fluorohexahydro-1H-pyrrolizin-7a-yl)methoxy)-4-(2,2,7,7-tetramethyl-1,4-thiazepan-4-yl)pyrido[4,3-d]pyrimidin-7-yl)naphthalen-2-ol], for which the 50% inhibitory concentration (IC50) at KRas^G12R is 23600 nM; in experiment [1], more than 10000 nM; in experiment [2], more than 10000 nM; at KRas^G12V it was 43000 nM; at KRas^G12D it was 98800 nM.
For `CCc1c(F)ccc2cc(O)cc(-c3ncc4c(N5CCCCC(P(C)(C)=O)C5)nc(OC[C@@]56CCCN5C[C@H](F)C6)nc4c3F)c12` (stereo partly drawn) [Example 627, (1-(7-(8-ethyl-7-fluoro-3-hydroxynaphthalen-1-yl)-8-fluoro-2-(((2R,7aS)-2-fluorohexahydro-1H-pyrrolizin-7a-yl)methoxy)pyrido[4,3-d]pyrimidin-4-yl)azepan-3-yl)dimethylphosphine oxide], the IC50 at KRas^G12R was 27 nM; in experiment [1] it was 4560 nM; in experiment [2], more than 10000 nM; on KRas^G12V it was 12 nM; on KRas^G12D, 35 nM.
The corresponding values for `CCc1c(F)ccc2cc(O)cc(-c3ncc4c(N5CCCC6(CCS6(=O)=O)C5)nc(OC[C@@]56CCCN5C[C@H](F)C6)nc4c3F)c12` (stereo partly drawn) [Example 628, 6-(7-(8-ethyl-7-fluoro-3-hydroxynaphthalen-1-yl)-8-fluoro-2-(((2R,7aS)-2-fluorohexahydro-1H-pyrrolizin-7a-yl)methoxy)pyrido[4,3-d]pyrimidin-4-yl)-1-thia-6-azaspiro[3.5]nonane 1,1-dioxide] are 180 nM, 2810 nM, 3260 nM, 107 nM and 78 nM.
The corresponding values for `CCc1c(F)ccc2cc(O)cc(-c3ncc4c(N5CCOCC(P(C)(C)=O)C5)nc(OC[C@@]56CCCN5C[C@H](F)C6)nc4c3F)c12` (stereo partly drawn) [Example 629, (4-(7-(8-ethyl-7-fluoro-3-hydroxynaphthalen-1-yl)-8-fluoro-2-(((2R,7aS)-2-fluorohexahydro-1H-pyrrolizin-7a-yl)methoxy)pyrido[4,3-d]pyrimidin-4-yl)-1,4-oxazepan-6-yl)dimethylphosphine oxide] are 37 nM, more than 10000 nM, more than 10000 nM, 15 nM and 65 nM.
The corresponding values for `CCc1c(F)ccc2cc(O)cc(-c3ncc4c(N[C@@H]5C[C@@H](C)S(=O)(=O)[C@@H](C)C5)nc(OC[C@@]56CCCN5C[C@H](F)C6)nc4c3F)c12` [Example 630, (2R,4s,6S)-4-((7-(8-ethyl-7-fluoro-3-hydroxynaphthalen-1-yl)-8-fluoro-2-(((2R,7aS)-2-fluorohexahydro-1H-pyrrolizin-7a-yl)methoxy)pyrido[4,3-d]pyrimidin-4-yl)amino)-2,6-dimethyltetrahydro-2H-thiopyran 1,1-dioxide] are 34 nM, 4420 nM, more than 10000 nM, 93 nM and 796 nM.
As to `CCc1c(F)ccc2cc(O)cc(-c3ncc4c(N5CCCC(S(N)(=O)=O)CC5)nc(OC[C@@]56CCCN5C[C@H](F)C6)nc4c3F)c12` (stereo partly drawn) [Example 631, 1-(7-(8-ethyl-7-fluoro-3-hydroxynaphthalen-1-yl)-8-fluoro-2-(((2R,7aS)-2-fluorotetrahydro-1H-pyrrolizin-7a(5H)-yl)methoxy)pyrido[4,3-d]pyrimidin-4-yl)azepane-4-sulfonamide], the 50% inhibitory concentration (IC50) on KRas^G12R was determined as 33 nM; in experiment [1] it was 1600 nM; in experiment [2], 3130 nM; at KRas^G12V, 12 nM; at KRas^G12D, 9 nM.
Consider `CCc1c(F)ccc2cc(O)cc(-c3ncc4c(NS(=O)(=O)C5CCCNCC5)nc(OC[C@@]56CCCN5C[C@H](F)C6)nc4c3F)c12` (stereo partly drawn) [Example 632, N-(7-(8-ethyl-7-fluoro-3-hydroxynaphthalen-1-yl)-8-fluoro-2-(((2R,7aS)-2-fluorotetrahydro-1H-pyrrolizin-7a(5H)-yl)methoxy)pyrido[4,3-d]pyrimidin-4-yl)azepane-4-sulfonamide], for which the half-inhibitory concentration (IC50) was 1870 nM on KRas^G12R; more than 10000 nM in experiment [1]; more than 10000 nM in experiment [2]; 1200 nM on KRas^G12V; 2180 nM at KRas^G12D.
Turning to `CCc1c(F)ccc2cc(O)cc(-c3ncc4c(N5Cc6n[nH]c(C(=O)N(C)C)c6C5)nc(OC[C@@]56CCCN5C[C@H](F)C6)nc4c3F)c12` [Example 635, 5-(7-(8-ethyl-7-fluoro-3-hydroxynaphthalen-1-yl)-8-fluoro-2-(((2R,7aS)-2-fluorotetrahydro-1H-pyrrolizin-7a(5H)-yl)methoxy)pyrido[4,3-d]pyrimidin-4-yl)-N,N-dimethyl-2,4,5,6-tetrahydropyrrolo[3,4-c]pyrazole-3-carboxamide], the half-maximal inhibitory concentration (IC50) at KRas^G12R is 766 nM; in experiment [1] it was more than 10000 nM; in experiment [2], more than 10000 nM; on KRas^G12V it was 454 nM; at KRas^G12D, 1640 nM.
